The record followed here is patent US9889180B2, “Method of treating cancer” (Agency for Science, Technology and Research, priority 2012, dated 2018).

The target in one data set is T1, EZH2/PRC2 and H3K27me3 (Homo sapiens, UniProt Q15910).
T1 construct: endogenous in cells; host or cells: DU145 (named by the earlier reading of the assay)
The experiment in a line: Western blot of PRC2 proteins and H3K27me3 in DU145 cells. Type of data set: cell-based. The settings on record: DZNep. As for the experimental part: (§1) Western Blotting was performed as described previously. Briefly, Cells were scraped, collected, and lysed in RIPA buffer. To release histones from chromatin, cell lysates were further sonicated for 15 sec using a XL2000 Microson Ultrasonic Processor (Misonix). Equal amounts of protein (30 μg) were separated on SDS-polyacrylamide gels and transferred to PVDF membranes. The blots were probed with antibodies against EED (07-368), SUZ12 (07-379), trimethylated H3-K27 (07-449), Acetyl-Histone H3 (06-599), which were purchased from Upstate Biotechnology. IFNGR1 (GIR-94) and anti-IFI16 (1G7) were purchased from Santa Cruz. EZH2 phospho S21 (00388) was purchased from Bethyl Laboratories. EZH2 (AC22), P110α PI3K, p-AKT (T308), p-AKT (S473), pSTAT1Y701, total STAT1, Histone H3 (3H1), Beclin-1 and cleaved PARP were purchased from Cell Signaling. Myc and Actin were purchased from Roche Applied Science and Sigma-Aldrich, respectively.
(In western blotting, separated proteins are transferred to a membrane and probed.)

Another data set relates to IFNGR1 promoter. The experiment in a line: ChIP analysis of EZH2 and H3K27me3 enrichments at IFNGR1 in DU145 cells. Type of data set: cell-based, human. As to conditions: DZNep (2.5 μM), 3 days. As for the experimental part: ChIP assays were performed as described previously. […] The immunoprecipitated DNA was quantified by quantitative real-time PCR using KAPA SyBr Fast qPCR kit (KAPA biosystems) with the specific ChIP primers as listed in the Table 4. Quantification of binding to the promoter was defined as the percentage of the whole cell lysate input DNA. The fold enrichment was derived by normalizing the specific antibody enriched against the IgG-enriched chromatin. CNR1 serves a positive control and Actin is a negative control. Significance of target genes was assessed relative to Actin level.

For data set [1], the system named is IFN responsive genes (IFI16, IRF1, OAS1). The experiment in a line: Quantitative PCR of IFN responsive genes in DU145 prostatospheres. As to conditions: DZNep with IFN-γ. Type of data set: cell-based, human. As for the experimental part:
Total RNA was isolated by using Trizol (Invitrogen) and purified with the RNeasy Mini Kit (Qiagen). The microarray hybridization was performed using the Illumina Gene Expression Sentrix BeadChip HumanRef-8_V3, and data analysis was performed by GeneSpring software from Agilent Technologies as described previously. The analyzed gene sets by GeneSpring were next subjected to Ingenuity Pathway Analysis (IPA) for gene ontology (GO) analysis. Reverse transcription and quantitative PCR assays were performed using High Capacity cDNA Archive kit and KAPA SyBr Fast qPCR kit (KAPA biosystems). For quantification of mRNA levels, 18S level was used as an internal control. All reactions were analyzed in an Applied Biosystems PRISM 7500 Fast Real-Time PCR system in 96-well plate format. Prostatospheres were generated according to protocols known to the skilled person in the art. […] 7 days old prostatospheres formed were stained with 4 μg/ml p-Iodonitrotetrazolium Violet (INT) overnight and were counted and analyzed using a GelCount™ automatic plate scanner (Oxford Optronics) and GelCount Version 0.025.1 software (Oxford Optronics). […]

The subject of a further data set is DU145 xenograft tumor. Briefly: DU145 xenograft tumor growth in male athymic nude mice. Type of data set: in vivo. As to conditions: IFN-γ 1×10^7 IU/kg i.p. daily, DZNep 1 mg/kg s.c. every alternating day, 38 days. As for the experimental part:
For in vivo evaluation of DZNep and IFN-γ treatment, the experiments were conducted in compliance with animal protocol approved by the ASTAR-Biopolis Institutional Animal Care and Use Committee (IACUC) of Singapore. DU145 cells were subcutaneously injected into 6-8 week male nude mice at 5×10^6 cells, followed by treatment with vehicle, IFN-γ (1×10^7 IU/kg) alone, DZNep (1 mg/kg) alone or combined DZNep (1 mg/kg) with IFN-γ (1×10^7IU/kg). IFN-γ was administered by intraperitoneal injection daily and DZNep by subcutaneous injection on every alternating day over a duration of 38 days after average tumor size reached around 150 mm^3. Tumors were measured by vernier calliper at least twice per week and tumors volume was calculated with formula: V=W*W*L/2. Each xenograft treatment arm comprised of 5-8 mice. Differences among groups and treatments were determined by ANOVA followed by t tests. (***p<0.001, n.s=not significant) Error bars represent means±s.e.m

Data set [2] deals with IFNGR1 expression and STAT1 activation. The experiment in a line: Western blot of IFNGR1 and IFN signaling in T47D cells. Type of data set: cell-based, human. As for the experimental part:
as §1

The test system of data set [3] is PC3-derived prostatospheres. The experiment in a line: Prostatosphere formation assay, PC3. The settings on record: EZH2 knockdown in combination with IFN-γ, 7 days. Type of data set: cell-based, human.
In a further data set the test system is IFNGR1 expression. The experiment in a line: qRT-PCR of IFNGR1 and IFNAR1 in RWPE1-MYC cells. Type of data set: cell-based, human. How it is done: (§2) Target-specific siRNA and non-targeting control siRNA were purchased from 1st Base Singapore and Integrated DNA technologies (IDT) with the following target sequences respectively: EZH2 siRNA: 5′-GACUCUGAAUGCAGUUGCU-3′ (SEQ ID NO: 1); MYC siRNA: 5′-[…]-3′ (SEQ ID NO:2). All siRNA were designed by 1st Base Singapore and IDT respectively. For transfection, 30 nM siRNAs were used to transfect cells. 48 h after transfection cell pellets were collected and subjected indicated assays.
(§3) Total RNA was isolated by using Trizol (Invitrogen) and purified with the RNeasy Mini Kit (Qiagen). The microarray hybridization was performed using the Illumina Gene Expression Sentrix BeadChip HumanRef-8_V3, and data analysis was performed by GeneSpring software from Agilent Technologies as described previously. The analyzed gene sets by GeneSpring were next subjected to Ingenuity Pathway Analysis (IPA) for gene ontology (GO) analysis. Reverse transcription and quantitative PCR assays were performed using High Capacity cDNA Archive kit and KAPA SyBr Fast qPCR kit (KAPA biosystems). For quantification of mRNA levels, 18S level was used as an internal control. All reactions were analyzed in an Applied Biosystems PRISM 7500 Fast Real-Time PCR system in 96-well plate format.

Data set [4] deals with IFN responsive genes (MX1, IRF1, IFI16). The experiment in a line: qRT-PCR of IFN responsive genes in PC3 cells. The data set is classed as cell-based, human. The settings on record: in response to IFN-γ stimulation. As for the experimental part:
as §2, §3

T1 sequence (Q15910 whole entry): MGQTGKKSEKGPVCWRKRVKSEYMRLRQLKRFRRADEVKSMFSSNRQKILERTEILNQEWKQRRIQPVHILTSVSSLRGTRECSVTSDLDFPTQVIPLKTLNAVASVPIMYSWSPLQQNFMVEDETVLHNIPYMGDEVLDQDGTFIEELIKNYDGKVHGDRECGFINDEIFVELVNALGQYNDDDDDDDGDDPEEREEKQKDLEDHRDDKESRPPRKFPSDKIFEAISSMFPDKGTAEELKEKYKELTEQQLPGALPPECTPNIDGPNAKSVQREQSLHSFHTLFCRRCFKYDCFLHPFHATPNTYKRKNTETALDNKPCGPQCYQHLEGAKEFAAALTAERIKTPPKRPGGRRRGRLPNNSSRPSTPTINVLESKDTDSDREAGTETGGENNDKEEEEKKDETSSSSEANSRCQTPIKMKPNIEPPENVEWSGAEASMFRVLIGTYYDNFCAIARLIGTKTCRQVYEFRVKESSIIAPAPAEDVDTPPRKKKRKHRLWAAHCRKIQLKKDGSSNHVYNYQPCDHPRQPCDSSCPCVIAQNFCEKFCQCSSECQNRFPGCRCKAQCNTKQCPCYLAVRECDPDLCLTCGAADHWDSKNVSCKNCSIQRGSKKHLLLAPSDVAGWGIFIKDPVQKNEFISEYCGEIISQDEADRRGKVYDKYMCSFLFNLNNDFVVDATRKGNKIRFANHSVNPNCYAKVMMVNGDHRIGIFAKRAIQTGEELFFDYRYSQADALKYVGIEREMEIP
T1 sequence (O75530 whole entry partner): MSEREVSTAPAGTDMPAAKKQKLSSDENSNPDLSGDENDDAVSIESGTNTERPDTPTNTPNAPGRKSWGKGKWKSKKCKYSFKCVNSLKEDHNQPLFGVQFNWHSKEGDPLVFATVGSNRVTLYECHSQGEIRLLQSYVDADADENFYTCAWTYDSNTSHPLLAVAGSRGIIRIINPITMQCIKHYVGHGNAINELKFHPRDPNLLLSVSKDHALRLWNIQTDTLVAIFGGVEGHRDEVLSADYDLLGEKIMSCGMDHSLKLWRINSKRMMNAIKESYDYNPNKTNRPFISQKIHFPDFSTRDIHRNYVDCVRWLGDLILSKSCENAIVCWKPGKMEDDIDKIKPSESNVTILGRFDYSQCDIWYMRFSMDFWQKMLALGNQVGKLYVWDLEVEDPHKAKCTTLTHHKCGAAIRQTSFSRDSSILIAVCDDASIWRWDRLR
T1 sequence (Q15022 whole entry partner): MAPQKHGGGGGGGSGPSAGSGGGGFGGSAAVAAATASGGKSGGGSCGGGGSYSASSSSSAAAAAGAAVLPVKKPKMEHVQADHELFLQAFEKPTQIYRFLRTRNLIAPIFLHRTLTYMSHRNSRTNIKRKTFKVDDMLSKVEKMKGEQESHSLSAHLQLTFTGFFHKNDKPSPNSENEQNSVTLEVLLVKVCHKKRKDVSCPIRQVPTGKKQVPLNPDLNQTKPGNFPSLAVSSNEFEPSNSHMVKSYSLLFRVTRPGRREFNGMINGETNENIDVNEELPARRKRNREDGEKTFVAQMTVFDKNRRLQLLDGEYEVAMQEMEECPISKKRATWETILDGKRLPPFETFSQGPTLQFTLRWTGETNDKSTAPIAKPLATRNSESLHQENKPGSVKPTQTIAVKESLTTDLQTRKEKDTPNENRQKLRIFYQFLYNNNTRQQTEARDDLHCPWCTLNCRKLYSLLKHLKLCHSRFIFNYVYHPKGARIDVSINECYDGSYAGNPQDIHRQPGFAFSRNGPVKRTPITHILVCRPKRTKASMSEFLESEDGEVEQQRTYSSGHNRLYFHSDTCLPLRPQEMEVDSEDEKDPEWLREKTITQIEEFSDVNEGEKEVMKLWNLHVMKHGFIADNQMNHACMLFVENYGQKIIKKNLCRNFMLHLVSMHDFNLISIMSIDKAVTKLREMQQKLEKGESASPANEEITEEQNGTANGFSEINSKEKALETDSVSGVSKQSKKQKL

Take `Cl.Nc1nccc2c1ncn2[C@@H]1C=C(CO)[C@@H](O)[C@H]1O` [DZNep, (−)-1-[(1R,4R,5S)-3-(Hydroxymethyl)-4,5-dihydroxy-2-cyclopenten-1-yl]4-aminoimidazo[4,5-c]pyridine hydrochloride]: on EZH2/PRC2 and H3K27me3, the “PRC2 protein levels (EZH2, EED, SUZ12)” value is “depleted EZH2, as well as the other two PRC2 proteins EED and SUZ12”; the “depletion of H3K27me3” value is listed as “much lower efficiency in depleting H3K27me3”. The “EZH2 and H3K27me3 enrichments at the IFNGR1 gene promoter” value in the data set with IFNGR1 promoter was “reduced both EZH2 and H3K27me3 enrichments”. The “expression of IFN genes in prostatospheres” value in data set [1] is “enhanced response to IFN-γ stimulation”. In addition, in the data set on DU145 xenograft tumor, the xenograft tumor growth entry is “slowed down the tumor growth”. For the same molecule, the IFNGR1 expression entry in data set [2] is “restored the IFNGR1 expression”. Moreover, the “STAT1 activation and PARP cleavage” value in data set [2] (DZNep co-treated with IFN-γ) is “increased STAT1 activation and PARP cleavage”.
For “EZH2 knockdown: EZH2 siRNA: 5′-GACUCUGAAUGCAGUUGCU-3′ (SEQ ID NO: 1) (other strand not given here)”, in data set [3], the “tumorsphere formation after knockdown” value is “efficiently inhibited the tumorsphere formation”. Besides, the “IFNGR1 expression after knockdown” value with IFNGR1 expression is “restore the expression of IFNGR1”. Moreover, the “activation of IFN genes after knockdown” value in data set [4] is “robust activation of IFN genes”.
